From US20250152585A1, “PHARMACEUTICAL COMPOUND” (Duke Street Bio Limited, priority 2022, published 2025)
Read-outs that look alike come from different tables or passages of the source.

Columns and labels:
[1] = biological target: T1, N-terminally FLAG-tagged PARP2 (amino acids 1-583) (Homo sapiens, UniProt Q9UGN5); assay: PARP2 probe displacement HTRF assay; format: binding; conditions: binned Kd
T1 construct: N-terminally FLAG-tagged PARP2 (amino acids 1-583)
Experimental: Data analysis was performed identical as for PARP1.

[2] = biological target: T2, full length N-terminally FLAG-tagged PARP1 (Homo sapiens, UniProt P09874); assay: PARP1 biochemical DELFIA assay (auto-PARylation); design: recombinant full length human N-terminally FLAG-tagged PARP1
[3] = biological target: T2, full length N-terminally FLAG-tagged PARP1; assay: PARP1 probe displacement HTRF assay; conditions: for Selectivity: PARP1 over PARP2, ratio Kd (PARP2)/Kd (PARP1); for Kd: binned Kd
[4] = binned IC50, PARP1 biochemical DELFIA assay
[5] = read-out: PARP1 HTRF, PARP1 probe displacement HTRF
[6] = binned IC50, biochemical auto-PARylation assay
[7] = read-out: PARP1 HTRF, probe displacement HTRF
[8] = PARP1 HTRF, PARP1 probe displacement HTRF
[9] = PARP1 HTRF, probe displacement HTRF

T1 sequence (Q9UGN5 whole entry, the tested form may be a part): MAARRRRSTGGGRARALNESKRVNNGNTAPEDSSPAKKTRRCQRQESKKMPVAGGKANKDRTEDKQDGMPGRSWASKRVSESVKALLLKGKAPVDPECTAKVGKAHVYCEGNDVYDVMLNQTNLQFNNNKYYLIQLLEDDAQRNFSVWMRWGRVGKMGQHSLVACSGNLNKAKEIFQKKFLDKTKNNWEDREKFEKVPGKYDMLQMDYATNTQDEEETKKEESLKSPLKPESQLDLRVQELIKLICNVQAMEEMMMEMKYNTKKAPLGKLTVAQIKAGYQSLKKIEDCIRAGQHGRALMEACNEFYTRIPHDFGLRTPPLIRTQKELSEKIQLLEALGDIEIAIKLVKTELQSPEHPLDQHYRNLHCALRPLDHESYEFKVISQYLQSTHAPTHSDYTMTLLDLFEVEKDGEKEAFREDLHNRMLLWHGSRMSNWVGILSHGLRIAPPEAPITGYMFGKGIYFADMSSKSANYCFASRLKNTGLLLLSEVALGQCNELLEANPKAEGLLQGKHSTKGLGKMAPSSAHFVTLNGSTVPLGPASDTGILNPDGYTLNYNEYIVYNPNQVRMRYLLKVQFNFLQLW
T2 sequence (P09874 whole entry): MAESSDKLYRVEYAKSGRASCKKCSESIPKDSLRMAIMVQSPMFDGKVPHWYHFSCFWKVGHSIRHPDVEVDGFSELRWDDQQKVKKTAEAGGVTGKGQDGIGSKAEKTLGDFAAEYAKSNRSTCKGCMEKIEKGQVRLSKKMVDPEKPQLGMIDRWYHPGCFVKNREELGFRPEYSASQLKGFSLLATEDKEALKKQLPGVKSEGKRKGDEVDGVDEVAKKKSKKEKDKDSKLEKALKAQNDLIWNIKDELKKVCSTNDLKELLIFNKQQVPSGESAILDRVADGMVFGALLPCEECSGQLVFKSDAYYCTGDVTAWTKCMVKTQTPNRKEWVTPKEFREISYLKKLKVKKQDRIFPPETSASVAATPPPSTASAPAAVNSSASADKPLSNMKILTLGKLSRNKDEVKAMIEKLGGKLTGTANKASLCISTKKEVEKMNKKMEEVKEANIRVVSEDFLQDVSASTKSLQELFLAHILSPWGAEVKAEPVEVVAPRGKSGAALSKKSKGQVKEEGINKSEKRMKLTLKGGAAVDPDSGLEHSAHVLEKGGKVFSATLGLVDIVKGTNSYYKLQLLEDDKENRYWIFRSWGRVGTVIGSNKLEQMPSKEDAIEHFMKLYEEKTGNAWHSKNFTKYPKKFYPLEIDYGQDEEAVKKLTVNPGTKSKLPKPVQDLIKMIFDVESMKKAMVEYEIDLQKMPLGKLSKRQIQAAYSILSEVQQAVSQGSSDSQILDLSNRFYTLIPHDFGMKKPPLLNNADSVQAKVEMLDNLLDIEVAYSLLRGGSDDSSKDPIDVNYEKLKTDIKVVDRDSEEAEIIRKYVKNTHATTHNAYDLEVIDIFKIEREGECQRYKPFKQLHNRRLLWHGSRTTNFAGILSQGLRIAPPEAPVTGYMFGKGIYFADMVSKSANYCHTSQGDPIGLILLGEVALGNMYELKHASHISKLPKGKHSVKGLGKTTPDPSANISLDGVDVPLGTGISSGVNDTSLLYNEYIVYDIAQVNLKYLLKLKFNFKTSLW

| SMILES | Kd ([1]; PARP2 probe displacement HTRF) [nM] | IC50 [2, 4] [nM] | Kd [3, 5] [nM] | Kd ([1]; probe displacement HTRF) [nM] | IC50 [2, 6] [nM] | Kd [3, 7] [nM] | Kd [3, 8] [nM] | Kd [3, 9] [nM] | Selectivity ([3]; probe displacement HTRF) |
| --- | --- | --- | --- | --- | --- | --- | --- | --- | --- |
| O=C(NCCF)c1ccc(N2CCC(N3CCC(c4nc5ccccc5c(=O)[nH]4)C3)CC2)cn1 (single isomer, unassigned) [Compound 117b] | 100 to 1000 | < 10 | < 10 | – | – | – | – | – | +++ (+++ indicate a value of at least 100) |
| CNC(=O)c1ccc(N2CCC(N3CCCC(c4nc5ccncc5c(=O)[nH]4)C3)CC2)cn1 (single isomer, unassigned) [Compound 93a] | > 10000 | 100 to 1000 | 100 to 1000 | – | – | – | – | – | + (+ indicates a value of 10 to less than 50) |
| CC(=O)Nc1ccc(N2CCC(N3CCC(c4cc5ccccc5c(=O)[nH]4)C3)CC2)cc1 (single isomer, unassigned) [Compound 289b] | – | – | – | 100 to 1000 | < 10 | 10 to 100 | – | – | + (+ indicates a value of 10 to less than 50) |
| CCc1ccc(C2CCN(C3CCN(c4ccc(C#N)nc4)CC3)C2)[nH]c1=O (single isomer, unassigned) [Compound 326b] | – | – | – | 1000 to 10000 | 10 to 100 | < 10 | – | – | +++ (+++ indicate a value of at least 100) |
| CNC(=O)c1cc(N2CCC(N3CCC(c4cc5ccccc5c(=O)[nH]4)C3)CC2)cs1 (racemic) [Compound 296rac] | – | – | – | 100 to 1000 | < 10 | < 10 | – | – | + (+ indicates a value of 10 to less than 50) |
| CNC(=O)c1ccc(N2CCC(N3CCC(c4cc5cccc(O)c5c(=O)[nH]4)C3)CC2)cn1 (racemic) [Compound 271rac] | – | – | – | 100 to 1000 | < 10 | < 10 | – | – | +++ (+++ indicate a value of at least 100) |
| CNC(=O)c1ccc(N2CCC(N3CC4(c5nc6ncccc6c(=O)[nH]5)CC3C4)CC2)c(F)n1 [Compound 303] | – | – | – | > 10000 | < 10 | – | – | < 10 | +++ (+++ indicate a value of at least 100) |
| N#Cc1ccc(N2CCC(N3CC4(c5nc6ccc(F)cc6c(=O)[nH]5)CC3C4)CC2)c(F)c1 [Compound 380] | – | – | – | > 10000 | < 10 | – | – | < 10 | +++ (+++ indicate a value of at least 100) |
| N#Cc1ccc(N2CCC(N3CCC(c4cc5ccc(F)cc5c(=O)[nH]4)C3)CC2)c(Cl)c1 (single isomer, unassigned) [Compound 386a] | – | – | – | 100 to 1000 | < 10 | < 10 | – | – | +++ (+++ indicate a value of at least 100) |
| CNC(=O)c1ccc(N2CCC(N3CCC(c4ccc(CCOC)c(=O)[nH]4)C3)CC2)cn1 (single isomer, unassigned) [Compound 240b] | – | – | – | > 10000 | 1000 to 10000 | 1000 to 10000 | – | – | − (− indicates a value of less than 10) |
| N#Cc1ccc(N2CCC(N3CCC(c4cc5cccc(F)c5c(=O)[nH]4)C3)CC2)nc1 (single isomer, unassigned) [Compound 340a] | – | – | – | 100 to 1000 | < 10 | < 10 | – | – | +++ (+++ indicate a value of at least 100) |
| CNC(=O)c1cnc(N2CCC(N3CCC(c4nc5ccccc5c(=O)[nH]4)C3)CC2)cn1 (single isomer, unassigned) [Compound 96b] | 100 to 1000 | 100 to 1000 | 100 to 1000 | – | – | – | – | – | − (− indicates a value of less than 10) |
| CNC(=O)c1ccc(N2CCC(N3CCC(c4cc5ncc(F)cc5c(=O)[nH]4)C3)CC2)cn1 (single isomer, unassigned) [Compound 315b] | – | – | – | 100 to 1000 | < 10 | < 10 | – | – | +++ (+++ indicate a value of at least 100) |
| CNC(=O)c1ccc(N2CCC(N3CCC(c4cc5cccc(F)c5c(=O)[nH]4)C3)CC2)cn1 (racemic) [Compound 136rac, 5-{4-[3-(8-fluoro-1-oxo-2H-isoquinolin-3-yl)pyrrolidin-1-yl]piperidin-1-yl}-N-methylpyridine-2-carboxamide] | 10 to 100 | < 10 | – | – | – | – | < 10 | – | +++ (+++ indicate a value of at least 100) |
| CNC(=O)c1ccc(N2CCC(N3CCC(c4cc5c(F)cccc5c(=O)[nH]4)C3)CC2)cn1 (single isomer, unassigned) [Compound 172a] | 1000 to 10000 | < 10 | < 10 | – | – | – | – | – | +++ (+++ indicate a value of at least 100) |
| CNC(=O)c1ccc(N2CCC(N3CCC(Cc4nc5ccccc5c(=O)[nH]4)CC3)CC2)cn1 [Compound 54, N-methyl-5-(4-{4-[(4-oxo-3H-quinazolin-2-yl)methyl]piperidin-1-yl}piperidin-1-yl)pyridine-2-carboxamide] | 100 to 1000 | < 10 | – | – | – | – | < 10 | – | +++ (+++ indicate a value of at least 100) |
| CNC(=O)c1ccc(N2CCC(N3CCCC(c4nc5ccccc5c(=O)[nH]4)C3)CC2)c(Cl)n1 (single isomer, unassigned) [Compound 94b] | > 10000 | < 10 | < 10 | – | – | – | – | – | +++ (+++ indicate a value of at least 100) |

Now from value to compound, other results behind:

| Kd ([1]; PARP2 probe displacement HTRF) [nM] | IC50 [2, 4] [nM] | Kd [3, 5] [nM] | Kd ([1]; probe displacement HTRF) [nM] | IC50 [2, 6] [nM] | Kd [3, 7] [nM] | Kd [3, 8] [nM] | Kd [3, 9] [nM] | SMILES | Selectivity ([3]; probe displacement HTRF) |
| --- | --- | --- | --- | --- | --- | --- | --- | --- | --- |
| 1000 to 10000 | < 10 | < 10 | – | – | – | – | – | CNC(=O)c1ccc(N2CCC(N3CCC(c4nc5ccccc5c(=O)[nH]4)C3)CC2)c(C(F)F)n1 (single isomer, unassigned) [Compound 158a] | +++ (+++ indicate a value of at least 100) |
| – | – | – | > 10000 | 10 to 100 | 10 to 100 | – | – | CNC(=O)c1ncc(N2CCC(N3CCC(c4cc5cccc(F)c5c(=O)[nH]4)C3)CC2)c(C(F)(F)F)n1 (single isomer, unassigned) [Compound 277b] | ++ (++ indicates a value of 50 to less than 100) |
| – | – | – | 1000 to 10000 | 10 to 100 | 10 to 100 | – | – | CNC(=O)c1ccc(N2CCC(N3CCC(c4cc5[nH]nc(C(F)(F)F)c5c(=O)[nH]4)C3)CC2)c(F)n1 (single isomer, unassigned) [Compound 280a] | ++ (++ indicates a value of 50 to less than 100) |
| 100 to 1000 | < 10 | < 10 | – | – | – | – | – | CNC(=O)c1ccc(N2CCC(N3CCC(c4nc5c(c(=O)[nH]4)CCCC5)C3)CC2)cn1 (single isomer, unassigned) [Compound 155b] | +++ (+++ indicate a value of at least 100) |
| – | – | – | 100 to 1000 | < 10 | < 10 | – | – | CNC(=O)c1ncc(N2CCC(N3CCC(c4cc5cccc(F)c5c(=O)[nH]4)C3)CC2)cn1 (racemic) [Compound 234rac] | +++ (+++ indicate a value of at least 100) |
| 1000 to 10000 | 10 to 100 | < 10 | – | – | – | – | – | CNC(=O)c1ccc(N2CCC(N3CCC(c4nc5cc(F)ccc5c(=O)[nH]4)C3)CC2)cn1 (single isomer, unassigned) [Compound 92b] | +++ (+++ indicate a value of at least 100) |
| – | – | – | 10 to 100 | < 10 | < 10 | – | – | CNC(=O)c1ccc(N2CCC(N3CCC(c4nc5sc(C)c(C)c5c(=O)[nH]4)C3)CC2)cn1 (single isomer, unassigned) [Compound 221b] | ++ (++ indicates a value of 50 to less than 100) |
| 1000 to 10000 | 100 to 1000 | 100 to 1000 | – | – | – | – | – | CCc1nc(C(=O)NC)ccc1N1CCC(N2CCCC(c3nc4ccccc4c(=O)[nH]3)C2)CC1 (single isomer, unassigned) [Compound 112a] | − (− indicates a value of less than 10) |
| 10 to 100 | < 10 | – | – | – | – | < 10 | – | CNC(=O)c1ccc(N2CCC(N3CCC(c4nc5c(c(=O)[nH]4)CCCN5C)C3)CC2)cn1 (single isomer, unassigned) [Compound 208b, N-methyl-5-(4-(3-(8-methyl-4-oxo-3,4,5,6,7,8-hexahydropyrido[2,3-d]pyrimidin-2-yl)pyrrolidin-1-yl)piperidin-1-yl)picolinamide] | ++ (++ indicates a value of 50 to less than 100) |
| 100 to 1000 | 100 to 1000 | 100 to 1000 | – | – | – | – | – | O=c1[nH]c(C2CCCN(C3CCN(c4ccc(F)cc4F)CC3)C2)nc2ccccc12 (single isomer, unassigned) [Compound 113a] | − (− indicates a value of less than 10) |
| 10 to 100 | < 10 | < 10 | – | – | – | – | – | CNC(=O)c1ccc(N2CCC(N3CCC(c4cc5cccc(Cl)c5c(=O)[nH]4)C3)CC2)cn1 (single isomer, unassigned) [Compound 128b] | ++ (++ indicates a value of 50 to less than 100) |
| – | – | – | 10 to 100 | < 10 | < 10 | – | – | CNC(=O)c1ccc(N2CCC(N3CCC(c4[nH]c(=O)c5cc(F)ccc5c4F)C3)CC2)cn1 (single isomer, unassigned) [Compound 401b] | + (+ indicates a value of 10 to less than 50) |
| – | – | – | > 10000 | 10 to 100 | – | – | – | CNC(=O)c1ccc(N2CCC(N3CCC(c4cc5c(c(=O)[nH]4)CCC(=O)N5)C3)CC2)cn1 (single isomer, unassigned) [Compound 309b, 5-(4-(3-(2,5-dioxo-1,2,3,4,5,6-hexahydro-1,6-naphthyridin-7-yl)pyrrolidin-1-yl)piperidin-1-yl)-N-methylpicolinamide] | ++ (++ indicates a value of 50 to less than 100) |
| 100 to 1000 | 10 to 100 | 10 to 100 | – | – | – | – | – | N#Cc1ccc(N2CCC(N3CCC(c4nc5ccccc5c(=O)[nH]4)C3)CC2)cc1 (single isomer, unassigned) [Compound 34a] | − (− indicates a value of less than 10) |
